Experimental findings from patent EP0569777A2 (Bayer Corporation, priority 1992, dated 1993) are described below.

The target of experiment [1] is human brain P-2 enzyme (peak B), aspartic protease identified as cathepsin D (Homo sapiens, UniProt P07339). Put plainly: Immunoblot assay of holo-APP 695 degradation by P-2 enzyme (peak B, 15-25 kDa gel filtration region). Format: biochemical. As to conditions: 100 uM pepstatin A in DMSO; P-2 enzyme 2.54 ug/ml, APP 168 nM, Mes buffer pH 6.5, 26 hr, 37°C; Figure 7. The protocol:
Reactions (32 ul) were initiated at 37°C by APP addition to achieve the following initial component conditions: P-2 enzyme (2.54 ug/ml) fraction from the 15-25 kDa region of gel filtration (Figure 6); APP (168 nM), in 96 mM Mes buffer pH 6.5. Reactions were terminated after 26 hr by addition of 15 ul of 3X sample buffer, and subject to immunoblot analysis using a 1/1000 dilution of the rabbit polyclonal antiserum to the APP C-terminus. […] The effect of incubation of APP for 0hr (lanes 2 and 30) and 26 hr (lanes 3 and 28) are also shown. Lanes 6, 10, 14, 17, 21 and 25 contained enzyme alone. Lanes 4, 8, 12, 19, 23, and […] contained the C-100 standard. Prestained molecular weight markers are present in lanes 1 and 29. The 18 and 28 kDa C-terminal product fragments are located with arrows.
ii) Solubilization. […] Absorbance of column effluent was monitored at 280 nm using a Pharmacia UV-M detector and a Kippen-zonen chart recorder. […] In the initial studies, eluted fractions were monitored for A280 nm, total protein (Bradford assay), and peptidase activity (as decsribed in Examples 2 and 3). […] Fractions were monitored for A 280 nm, total protein (Bradford assay), peptidase activity, and activity for C-terminal processing of recombinant APP. […]
In general terms: A western blot detects proteins with antibodies after separation by electrophoresis.

The target of experiment [2] is human cathepsin D (human liver, Cal Biochem, catalog # 219401) (Homo sapiens, UniProt P07339). Put plainly: Immunoblot assay of holo-APP 695 degradation by purified cathepsin D. Format: biochemical. The protocol:
The numbers indicate the time (hr) after initiation of reactions. Reactions were initiated at 37°C by the addition of APP to achieve the following initial component concentrations: APP (82 nM), cathepsin D (9.2 ug/ml),in […] Mes buffer pH 6.5. Samples without pepstatin received the same amount of solvent (1.3 % v/v methanol). At t=0, 43, 84, 140 and 215 minutes aliquots (15 ul) were removed mixed with 7.5 ul of SDS-PAGE sample buffer and subject to immunoblot analysis using the Rabbit antiserum to the APP C-terminal domain. The 18 and 28 kDa reaction products are located with arrows.
Reactions were initiated at 37°C by APP addition thereby achieving the following initial component concentrations: APP (448 nM), cathepsin D (30 nM), and when included pepstatin A (97.2 µm) in 83 mM sodium acetate buffer pH 5.0. At the indicated time points, aliquots (20 ul), were removed mixed with 10 ul of 3X SDSPAGE sample buffer and subjected to immunoblot analysis using monoclonal antibody 286.8A (1/100). Reactions were performed in the absence (-) or presence (+) of pepstatin A (delivered in methanol). All samples received 2.7 % (v/v) methanol. Lanes 1 and 12 contained prestained Mr markers, Lanes 10 and 18 contained C-100 Mr marker. Lanes 11 and 13 contained APP incubated without cathepsin D for zero and 21hr respectively. The main product fragments are indicated with arrows. […]

Where a SMILES comes first, the peptide text is derived from it. [ ]: non-standard residue; d: D form. The star is where a group is joined. Sta = CC(C)C[C@H](N)[C@@H](O)CC(=O)O; Isovaleryl = CC(C)CC(=O)*

human cathepsin D (human liver, Cal Biochem, catalog # 219401), sequence (P07339 with tags, fused parts or gaps): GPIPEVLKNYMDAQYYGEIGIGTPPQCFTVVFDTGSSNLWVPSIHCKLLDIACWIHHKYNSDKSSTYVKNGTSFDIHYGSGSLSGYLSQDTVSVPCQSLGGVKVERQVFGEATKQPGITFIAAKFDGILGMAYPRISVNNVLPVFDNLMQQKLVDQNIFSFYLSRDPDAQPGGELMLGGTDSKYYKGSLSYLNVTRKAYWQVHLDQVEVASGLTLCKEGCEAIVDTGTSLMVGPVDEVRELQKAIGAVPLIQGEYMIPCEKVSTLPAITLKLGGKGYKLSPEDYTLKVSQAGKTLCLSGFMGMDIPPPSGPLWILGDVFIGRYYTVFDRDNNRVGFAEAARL
human brain P-2 enzyme (peak B), aspartic protease identified as cathepsin D, sequence (P07339 with tags, fused parts or gaps): as above

Turning to `CC(C)CC(=O)N[C@H](C(=O)N[C@H](C(=O)N[C@@H](CC(C)C)[C@@H](O)CC(=O)N[C@@H](C)C(=O)N[C@@H](CC(C)C)[C@@H](O)CC(=O)O)C(C)C)C(C)C` [pepstatin A] (Isovaleryl-VV[Sta]A[Sta]-OH), in experiment [1], the “Inhibition of peak B APP degrading activity” value was “quantitative inhibition”. For the same molecule, the “Inhibition of cathepsin D catalysed APP cleavage (18 and 28 kDa C-terminal products)” value in experiment [2] (86 uM pepstatin A, APP 82 nM, cathepsin D 9.2 ug/ml, Mes buffer pH 6.5, 37°C, Figure 8) was “Inhibition”. For the same molecule, the “Inhibition of cathepsin D catalysed APP degradation (beta-amyloid immunoreactive bands, Figure 13)” value in experiment [2] (pepstatin A 97.2 µm, APP 448 nM, cathepsin D 30 nM, sodium acetate buffer pH 5.0, 37°C) was “inhibited”.
